In patent publication US10010493B2, “Ester compound, and cosmetic component and cosmetic product each containing same” (Kokyu Alcohol Kogyo Co., Ltd., priority 2014, dated 2018):
“Also recorded” adds a separate entry of the source. One block for each compound: values may come before it.

Experiments:
Format in all cases: physicochemical
[1] = Viscosity, Brookfield viscometer DV-II+; details: 25° C., spindle No. 2, 12 rpm
Procedure: Viscosity of ester compounds was measured using Brookfield viscometer DV-II+ (spindle No. 2, 12 rpm, 25° C.). As a comparison, viscosity of oil agents commonly used in cosmetic products was also measured.

[2] = Smoothness (MIU, MMD), KES-SE Friction Tester on artificial leather; details: for MIU (mean frictional coefficient) / MMD (fluctuation of mean frictional coefficient): 25° C., 0.1 ml on artificial leather, average of three; for Smoothness in comparison with other oil agents: comparison of MIU at similar viscosity
Procedure: Smoothness of ester compounds was measured using KES-SE Friction Tester (Kato Tech Co., Ltd.) with a detection-unit jig (an accessory of the tester, made of silicone rubber with irregularities resembling a human finger) and artificial leather (artificial leather Supplare produced by Idemitsu Technofine Co., Ltd.). On the artificial leather, 0.1 ml of an ester compound was droped. The jig was contacted to the site on the surface of the artificial leather where the oil agent was dropped. Temperature of the leather, oil agent and jig was adjusted to 25° C. in a constant temperature bath. Then, the jig was moved back and forth once at the same site with a speed of 1 mm/s (the moving distance of the jig was approximately 80 mm in one back-and-forth movement), and a mean frictional coefficient (MIU) and a fluctuation of mean frictional coefficient (MMD) for one back-and-forth movement were measured. The measurement was performed three times and the average values of MIU and MMD were calculated, which were used as indices of smoothness. For comparison, MIU and MMD of the various ester compounds used in the viscosity measurement were also measured.

[3] = Ultraviolet absorber solubility in oily bases; further: key: C: Soluble; N: Insoluble; (N): Since it is insoluble when ultraviolet absorber is 3%, it is judged to be probably insoluble at 5% as well
Procedure: Their state after 1 week was evaluated visually.

[4] = Glossiness (refractive index), Abbe refractometer NTR-2T; details: 20° C.
Procedure: Measurement is carried out using Abbe refractometer NTR-2T (Atago Co., Ltd.) at 20° C., and resulting values represent refractive index.

[5] = Compatibility with various types of oil agent; parameters: key to Compatibility with Hydrogenated polyisobutene / Compatibility with Isononyl isononanoate / Compatibility with Neopentyl glycol diethylhexanoate / Compatibility with Triethylhexanoin / Compatibility with Octyldodecanol / Compatibility with Polyglyceryl-2 triisostearate / Compatibility with Diisostearyl malate / Compatibility with Olive oil / Compatibility with Isostearic acid / Compatibility with Cyclomethicone / Compatibility with Dimethicone (10 mm^2/s) / Compatibility with Ethanol / Compatibility with Glycerin / Compatibility with Squalane / Compatibility with Mineral oil: C: Compatible; N: Not compatible; details: for Compatibility with Cyclomethicone / Compatibility with Dimethicone (10 mm^2/s) / Compatibility with Ethanol / Compatibility with Glycerin / Compatibility with Hydrogenated polyisobutene / Compatibility with Isostearic acid / Compatibility with Mineral oil / Compatibility with Octyldodecanol / Compatibility with Olive oil / Compatibility with Polyglyceryl-2 triisostearate / Compatibility with Squalane / Compatibility with Triethylhexanoin / Compatibility with Diisostearyl malate / Compatibility with Isononyl isononanoate / Compatibility with Neopentyl glycol diethylhexanoate: 25° C., visual after 1 week
Procedure: Each of TCDNP and TCDDNP obtained in Synthesis Examples 1 and 8 and each of oily bases are combined with a weight ratio of 9:1 or 1:1, and dissolved in a water bath at 80-90° C. for approximately 30 min with stirring, then cooled to 50° C. with stirring, and stored in a thermostatic chamber at 25° C. Their compatibility was evaluated by visually checking the state after 1 week.

[6] = Tinosorb S 7%, 25° C., visual after 1 week
[7] = Tinosorb S 5%, 25° C., visual after 1 week
[8] = Tinosorb S 5%, judged from insolubility at 3%
[9] = Tinosorb S 2%, 25° C., visual after 1 week

Refractive index [4]: 1.445
Solubility of ultraviolet absorber Tinosorb S in the component [3, 8]: (N)
Compound: CC(C)CCCCCCCCCCOC(=O)CCCCCC(C)C [Isotridecyl isononanoate, reference compound]

Solubility of ultraviolet absorber Tinosorb S in the component [3, 6]: N
Compound: CCCCCCCCCC(=O)OCC(C)(C)COC(=O)CCCCCCCCC [Neopentyl glycol dicaprate]

Solubility of ultraviolet absorber Tinosorb S in the component [3, 7]: N
Compound: CCCCC(CC)C(=O)OCC(C)(C)COC(=O)C(CC)CCCC (centres unmarked) [Neopentyl glycol diethylhexanoate]

Viscosity [1]: 96 mPa · s
MIU (mean frictional coefficient) [2]: 0.41
MMD (fluctuation of mean frictional coefficient) [2]: 0.006
Solubility of ultraviolet absorber Tinosorb S in the component [3, 9]: N
Compound: CCCCCCCCCCCCCCCCCC(=O)OC(CCCCCC)CCCCCCCCCCC(=O)OCC(CCCCCCCC)CCCCCCCCCC (centres unmarked) [Octyldodecyl stearoyloxy stearate, reference compound]

Viscosity [1]: 32 mPa · s
MIU (mean frictional coefficient) [2]: 0.40
MMD (fluctuation of mean frictional coefficient) [2]: 0.007
Compound: CC(C)CCCC(C)CCCC(C)CCCCC(C)CCCC(C)CCCC(C)C (centres unmarked) [Squalane, reference compound]

Refractive index [4]: 1.472
Viscosity [1]: 462 mPa · s
MIU (mean frictional coefficient) [2]: 0.28
MMD (fluctuation of mean frictional coefficient) [2]: 0.006
Compatibility with Cyclomethicone ([5]; 10%): C
Compatibility with Dimethicone (10 mm^2/s) ([5]; 10%): C
Compatibility with Ethanol ([5]; 10%): C
Compatibility with Glycerin ([5]; 10%): N
Compatibility with Hydrogenated polyisobutene ([5]; 10%): C
Compatibility with Isostearic acid ([5]; 10%): C
Compatibility with Mineral oil ([5]; 10%): C
Compatibility with Octyldodecanol ([5]; 10%): C
Compatibility with Olive oil ([5]; 10%): C
Compatibility with Polyglyceryl-2 triisostearate ([5]; 10%): C
Compatibility with Squalane ([5]; 10%): C
Compatibility with Triethylhexanoin ([5]; 10%): C
Compatibility with Cyclomethicone ([5]; 50%): C
Compatibility with Dimethicone (10 mm^2/s) ([5]; 50%): C
Compatibility with Ethanol ([5]; 50%): C
Compatibility with Glycerin ([5]; 50%): N
Compatibility with Hydrogenated polyisobutene ([5]; 50%): C
Compatibility with Isostearic acid ([5]; 50%): C
Compatibility with Mineral oil ([5]; 50%): C
Compatibility with Octyldodecanol ([5]; 50%): C
Compatibility with Olive oil ([5]; 50%): C
Compatibility with Polyglyceryl-2 triisostearate ([5]; 50%): C
Compatibility with Squalane ([5]; 50%): C
Compatibility with Triethylhexanoin ([5]; 50%): C
Compound: CC(C)(C)C(=O)OCC1CC2CC1C1CCC(COC(=O)C(C)(C)C)C21 (centres unmarked) [TCDDNP, 3,8-bis-(neopentanoyloxymethyl)-tricyclo[5.2.1.0^2,6]decane]
Compatibility with the oil agents (overall) [5]: excellent compatibility with the oil agents other than glycerin

Refractive index [4]: 1.483
Viscosity [1]: 15 mPa · s
MIU (mean frictional coefficient) [2]: 0.27
MMD (fluctuation of mean frictional coefficient) [2]: 0.005
Compound: CC(C)C(=O)OCC1CC2CC1C1CCCC21 (centres unmarked) [TCDIB, tricyclo[5.2.1.0^2,6]deca-8-yl-methyl isobutanoate]

Refractive index [4]: 1.479
Viscosity [1]: 44 mPa · s
MIU (mean frictional coefficient) [2]: 0.31
MMD (fluctuation of mean frictional coefficient) [2]: 0.006
Smoothness in comparison with other oil agents [2]: superior smoothness than squalane
Solubility of ultraviolet absorber Tinosorb S in the component [3, 7]: N
Compound: CC(CC(=O)OCC1CC2CC1C1CCCC21)CC(C)(C)C (centres unmarked) [TCDIN, tricyclo[5.2.1.0^2,6]deca-8-yl-methyl isononanoate]

Refractive index [4]: 1.479
Viscosity [1]: 32 mPa · s
MIU (mean frictional coefficient) [2]: 0.25
MMD (fluctuation of mean frictional coefficient) [2]: 0.006
Compatibility with Cyclomethicone ([5]; 10%): C
Compatibility with Diisostearyl malate ([5]; 10%): C
Compatibility with Dimethicone (10 mm^2/s) ([5]; 10%): C
Compatibility with Ethanol ([5]; 10%): C
Compatibility with Glycerin ([5]; 10%): N
Compatibility with Hydrogenated polyisobutene ([5]; 10%): C
Compatibility with Isononyl isononanoate ([5]; 10%): C
Compatibility with Mineral oil ([5]; 10%): C
Compatibility with Neopentyl glycol diethylhexanoate ([5]; 10%): C
Compatibility with Octyldodecanol ([5]; 10%): C
Compatibility with Polyglyceryl-2 triisostearate ([5]; 10%): C
Compatibility with Squalane ([5]; 10%): C
Compatibility with Cyclomethicone ([5]; 50%): C
Compatibility with Diisostearyl malate ([5]; 50%): C
Compatibility with Dimethicone (10 mm^2/s) ([5]; 50%): C
Compatibility with Ethanol ([5]; 50%): C
Compatibility with Glycerin ([5]; 50%): N
Compatibility with Hydrogenated polyisobutene ([5]; 50%): C
Compatibility with Isononyl isononanoate ([5]; 50%): C
Compatibility with Mineral oil ([5]; 50%): C
Compatibility with Neopentyl glycol diethylhexanoate ([5]; 50%): C
Compatibility with Octyldodecanol ([5]; 50%): C
Compatibility with Polyglyceryl-2 triisostearate ([5]; 50%): C
Compatibility with Squalane ([5]; 50%): C
Solubility of ultraviolet absorber Tinosorb S in the component [3, 6]: N
Compound: CC(C)(C)C(=O)OCC1CC2CC1C1CCCC21 (centres unmarked) [TCDNP, tricyclo[5.2.1.0^2,6]deca-8-yl-methyl neopentanoate]
Smoothness in comparison with other oil agents [2]: superior smoothness than squalane; also recorded: comparable to dimethicone
Compatibility with the oil agents (overall) [5]: excellent compatibility with the oil agents other than glycerin

Refractive index [4]: 1.484
Viscosity [1]: 15 mPa · s
MIU (mean frictional coefficient) [2]: 0.29
MMD (fluctuation of mean frictional coefficient) [2]: 0.005
Compound: CCCCC(=O)OCC1CC2CC1C1CCCC21 (centres unmarked) [TCDP, tricyclo[5.2.1.0^2,6]deca-8-yl-methyl-n-pentanoate]

Refractive index [4]: 1.468
Compound: Pentaerythrityl tetraisostearate [reference compound]

Viscosity [1]: 339 mPa · s
MIU (mean frictional coefficient) [2]: 0.31
MMD (fluctuation of mean frictional coefficient) [2]: 0.008
Compound: Polyglyceryl-2 triisostearate [reference compound]

More lines, now with the values behind:

Compound: CCCCCCCCCCC(CO)CCCCCCCCCC [Decyldodecanol, reference compound]
Viscosity [1]: 69 mPa · s
MIU (mean frictional coefficient) [2]: 0.40
MMD (fluctuation of mean frictional coefficient) [2]: 0.006

Compound: CC(C)COC(=O)CCCCC(=O)OCC(C)C [Diisobutyl adipate]
Solubility of ultraviolet absorber Tinosorb S in the component [3, 6]: N

Compound: CCOC(=O)CCCCCCCCCCCCCCC(C)C [Ethyl isostearate]
Solubility of ultraviolet absorber Tinosorb S in the component [3, 7]: N

Compound: CC(C)CCCCCCCOC(=O)C(C)(C)C [Isodecyl neopentanoate, reference compound]
Refractive index [4]: 1.430
Viscosity [1]: 4 mPa · s
MIU (mean frictional coefficient) [2]: 0.15
MMD (fluctuation of mean frictional coefficient) [2]: 0.005
Solubility of ultraviolet absorber Tinosorb S in the component [3, 7]: N

Compound: CC(C)CCCCCCOC(=O)CCCCCC(C)C [Isononyl isononanoate]
Solubility of ultraviolet absorber Tinosorb S in the component [3, 7]: N

Compound: CC(C)CCCCCCCCCCCCCCCOC(=O)C(C)(C)C [Isostearyl neopentanoate, reference compound]
Refractive index [4]: 1.446
Viscosity [1]: 14 mPa · s
MIU (mean frictional coefficient) [2]: 0.27
MMD (fluctuation of mean frictional coefficient) [2]: 0.006
Solubility of ultraviolet absorber Tinosorb S in the component [3, 7]: N

Compound: CC(C)CCCCCC(=O)OCC(C)(C)COC(=O)CCCCCC(C)C [Neopentyl glycol diisononanoate]
Solubility of ultraviolet absorber Tinosorb S in the component [3, 8]: (N)

Compound: CCCCCCCCCCC(CO)CCCCCCCC (centres unmarked) [Octyldodecanol, reference compound]
Viscosity [1]: 49 mPa · s
MIU (mean frictional coefficient) [2]: 0.39
MMD (fluctuation of mean frictional coefficient) [2]: 0.007

Compound: Ethylhexyl hydroxystearate
Solubility of ultraviolet absorber Tinosorb S in the component [3, 8]: (N)

Compound: Ethylhexyl isononanoate
Solubility of ultraviolet absorber Tinosorb S in the component [3, 7]: N

Compound: Isopropyl dimerate
Solubility of ultraviolet absorber Tinosorb S in the component [3, 9]: N

Compound: tricyclo[5.2.1.0^2,6]deca-8-yl-methyl isostearate [TCDIS]
Refractive index [4]: 1.482
Viscosity [1]: 85 mPa · s
MIU (mean frictional coefficient) [2]: 0.40
MMD (fluctuation of mean frictional coefficient) [2]: 0.006
